Results taken from a compilation of properties of binary mixtures (doi:10.1016/j.molliq.2016.01.096).

Assay: xn = mol fraction of the nth substance listed
Conditions: 100 kPa

CCOCCO + CCOS(=O)(=O)[O-].CC[n+]1ccn(C)c1
speed of sound [m/s]
Conditions | 298.15 K | 308.15 K | 318.15 K | 328.15 K
x1 = 0.0588 | – | – | 1620.5 | –
x1 = 0.1202 | 1654.9 | 1630.3 | – | 1581.6
x1 = 0.1846 | 1638.2 | 1613.2 | 1588.4 | 1563.9
x1 = 0.2326 | – | 1599.2 | – | –
x1 = 0.3548 | 1586.6 | 1560.3 | 1534.4 | 1509
x1 = 0.4516 | – | 1526.4 | 1499.8 | 1473.7
x1 = 0.5511 | 1516.8 | 1488.9 | 1461.4 | –
x1 = 0.6529 | 1476.3 | 1447.6 | 1419.1 | 1390.8
x1 = 0.741 | – | – | 1379.3 | –
x1 = 0.8273 | – | – | 1336.7 | 1305.7
x1 = 0.8658 | – | – | 1316.4 | –
x1 = 0.9094 | 1356.8 | 1324.7 | 1291.9 | 1259.3
x1 = 0.9512 | 1333.2 | 1300.2 | 1266.4 | 1232.9
x1 = 1 | 1302.8 | 1268.6 | 1233.3 | 1198.8

CCOS(=O)(=O)[O-].CC[n+]1ccn(C)c1 + CCOCCO
x2 = 0
Conditions | speed of sound [m/s]
298.15 K | 1680.8
318.15 K | 1632.4
328.15 K | 1608.9
